Laboratory results published in publication PMC9944867, “Mechanistic in vitro studies indicate that the clinical drug–drug interactions between protease inhibitors and rosuvastatin are driven by inhibition of intestinal BCRP and hepatic OATP1B1 with minimal contribution from OATP1B3, NTCP and OAT3” (Pharmacology Research & Perspectives, 2023).
“And” between values parts separate entries of the source, which are not always exact repeats. Identical values can stand only once. Like-named read-outs stand apart in the source and are kept apart here. Marks after values point to notes of the source that are not given here.

How the values were obtained:
[1] = system: intestinal BCRP and hepatic OATP1B1, OATP1B3, NTCP; experiment: Mechanistic static prediction of rosuvastatin AUC change (AUCR); details: predicted AUCR 1.01
human NTCP (SLC10A1) = molecular target: T1, human NTCP (SLC10A1) (Homo sapiens, UniProt Q14973); experiment: NTCP inhibition in transporter-expressing HEK293 cells, [3H]-taurocholic acid uptake (IC50 determination); format: cell-based; details: for IC50: NTCP-mediated transport of [3H]-taurocholic acid (1 μM), HEK293
T1 construct: host or cells: HEK293 TransportoCells
T1 sequence (Q14973 1-349): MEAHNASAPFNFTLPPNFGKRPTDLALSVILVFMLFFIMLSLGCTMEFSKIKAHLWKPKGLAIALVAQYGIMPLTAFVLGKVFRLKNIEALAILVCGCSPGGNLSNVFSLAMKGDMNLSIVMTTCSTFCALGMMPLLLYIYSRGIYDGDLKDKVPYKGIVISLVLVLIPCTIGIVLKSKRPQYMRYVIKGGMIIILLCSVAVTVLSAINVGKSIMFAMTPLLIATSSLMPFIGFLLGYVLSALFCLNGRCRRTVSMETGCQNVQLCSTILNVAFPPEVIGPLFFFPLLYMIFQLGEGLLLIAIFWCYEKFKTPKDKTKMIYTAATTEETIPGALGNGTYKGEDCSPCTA

[2] = system: intestinal BCRP and hepatic OATP1B1, OATP1B3, NTCP
[3] = system: intestinal BCRP and hepatic OATP1B1, OATP1B3, NTCP; details: rosuvastatin; ref Elsby et al.[13]; cited from earlier work
NTCP = system: NTCP; parameters: method as in Vildhede et al.[33]; details: ref Vildhede et al.[33], cited from earlier work
BCRP = molecular target: T2, BCRP (Homo sapiens, UniProt Q9UNQ0); experiment: Caco-2 unidirectional (B-A) BCRP inhibition assay, [3H]-estrone 3-sulfate transport (IC50 determination)
T2 sequence (Q9UNQ0 1-655): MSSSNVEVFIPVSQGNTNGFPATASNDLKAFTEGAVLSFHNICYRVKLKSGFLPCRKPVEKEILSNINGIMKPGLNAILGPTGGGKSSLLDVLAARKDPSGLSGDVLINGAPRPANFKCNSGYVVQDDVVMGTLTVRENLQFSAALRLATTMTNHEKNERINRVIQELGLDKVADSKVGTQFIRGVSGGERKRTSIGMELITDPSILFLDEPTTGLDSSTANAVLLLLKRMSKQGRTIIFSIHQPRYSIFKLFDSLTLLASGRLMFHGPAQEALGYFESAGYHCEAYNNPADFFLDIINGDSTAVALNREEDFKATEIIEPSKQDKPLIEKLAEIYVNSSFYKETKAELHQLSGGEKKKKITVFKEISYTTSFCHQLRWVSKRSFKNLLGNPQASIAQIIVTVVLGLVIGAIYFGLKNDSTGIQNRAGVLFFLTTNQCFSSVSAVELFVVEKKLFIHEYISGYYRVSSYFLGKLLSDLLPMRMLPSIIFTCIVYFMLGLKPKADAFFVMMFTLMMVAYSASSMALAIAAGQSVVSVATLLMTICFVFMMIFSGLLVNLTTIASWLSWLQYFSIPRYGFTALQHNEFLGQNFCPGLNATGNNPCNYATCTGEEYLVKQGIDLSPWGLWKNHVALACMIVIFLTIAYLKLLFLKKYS
Method: The methodology used was adapted from the previously validated Caco‐2 unidirectional (basolateral to apical; B‐A) BCRP inhibition assay.[13]
The BCRP inhibition experiments were performed between day 18 to 22 post‐seeding. […] After pre‐incubation, transport buffer was removed and the appropriate donor solutions were added to the basolateral donor compartment. […] Receiver solutions (final DMSO concentration of ≤1 % v/v) in transport buffer containing either the corresponding concentration of test inhibitor or DMSO (vehicle control), and the fluorescent cell monolayer integrity marker lucifer yellow (100 μM), were added to the apical compartments (total volume = 90 μL). Incubations were conducted in triplicate wells per assay condition in a heated incubator at 37°C for 90 min. Following the incubation, the amount (pmol) of [^3H]‐estrone 3‐sulfate appearing in the receiver compartment was determined by sampling (50 μL) into a white walled clear bottomed multiwell plate, to which scintillation fluid (200 μL) was added, and then samples counted on a Microbeta2 liquid scintillation counter (PerkinElmer). The quantified amount (derived from disintegrations per minute; DPM) of [^3H]‐estrone 3‐sulfate was subsequently converted to concentration (pmol/mL) and used to calculate apparent permeability (Papp), as described previously.[18]

OAT3 = system: OAT3; parameters: method as in Yoshida et al.[32]; details: up to 10 μM; ref Yoshida et al.[32]; cited from earlier work
OATP1B3 = system: OATP1B3; parameters: method as in Vildhede et al.[33]; details: ref Vildhede et al.[33], cited from earlier work
[4] = human, in vivo
[5] = mean (±SD) of three occasions, read-out: IC50 mean (NTCP)
[6] = single occasion, read-out: IC50, determined values from different occasions (NTCP)
[7] = IC50 mean (BCRP), BCRP-mediated B-A transport of [3H]-estrone 3-sulfate (1 μM), Caco-2, mean (±SD) of occasions, IC50 equates to Ki

Structure (SMILES)	Reduction in NTCP function reflected by predicted AUCR [1]	R value (NTCP) (human NTCP (SLC10A1); FDA static equation R = 1 + [Iin max u]/Ki, potential for interaction if ≥1.1)	IC50 (human NTCP (SLC10A1); [5])	IC50 (human NTCP (SLC10A1); [6])	inhibition [2]	Predicted AUCR, inhibition of BCRP and OATP1B1 alone (earlier model) [3]	Inhibition of NTCP, published (NTCP; tested up to 40 μM)	IC50 (BCRP)	IC50 (BCRP; [7])	Inhibition of OAT3, published (OAT3)	Published IC50/Ki (OATP1B3) (OATP1B3; probe substrate atorvastatin)	Inhibition of NTCP, published (NTCP; tested up to 10 μM)	[Ig] maximal enterocyte concentration [4]	[Iin max u] unbound maximum hepatic inlet concentration [4]	[Iin max] maximum hepatic inlet concentration [4]	Inhibition of OATP1B3, published (OATP1B3; tested up to 10 μM)
COC(=O)N[C@H](C(=O)N[C@@H](Cc1ccccc1)[C@@H](O)CN(Cc1ccc(-c2ccccn2)cc1)NC(=O)[C@@H](NC(=O)OC)C(C)(C)C)C(C)(C)C [atazanavir]	4%	1.07	65.6 µM	55.9 µM and 63.8 µM and 77.1 µM	~80% and 75%	2.13	no inhibition	49.8 µM and 30.3 µM and 51.5 µM and 37.1 µM	42.2 µM	no inhibition	7.3 (atorvastatin) μM	–	–	–	–	–
Cc1cccc(C)c1OCC(=O)N[C@@H](Cc1ccccc1)[C@@H](O)C[C@H](Cc1ccccc1)NC(=O)[C@H](C(C)C)N1CCCNC1=O [lopinavir]	–	–	20.3 µM	22.6 µM and 18.4 µM and 19.9 µM	–	–	–	12.7 µM and 18.3 µM and 15.6 µM	15.5 µM	no inhibition	–	no inhibition	42.4 ^d μM	0.450 µM	22.5 ^d μM	no inhibition
